Test results taken from paper PMC9247258, “Synthesis and Biological Activity Evaluation of 2-Cyanopyrrole Derivatives as Potential Tyrosinase Inhibitors” (Frontiers in Chemistry, 2022).
pIC50: −log10 of the molar value.

Legend:
mushroom tyrosinase [1] = molecular target: T1, mushroom tyrosinase (Agaricus bisporus, UniProt C7FF04); assay: Mushroom tyrosinase inhibitory assay (L-DOPA as substrate); type: biochemical; design: purchased Sigma (St. Louis, MO, United States); conditions: for pIC50: mushroom tyrosinase, L-DOPA substrate, absorbance 475 nm
Protocol: The mushroom tyrosinase activity assays of synthetic compounds were carried out according to the previously reported modification ([Qin et al., 2015]). L-DOPA was used as the substrate. Briefly, 800 μl of phosphate buffer (50 mM, pH 6.8), 50 μl of mushroom tyrosinase (666.67 U/ml, dissolved in PBS), and 50 μl of inhibitor (dissolved in DMSO) were placed in the plastic centrifuge tube. Then, 100 μl of L-DOPA (5 mM, dissolved in PBS) was added. Subsequently, its change in absorbance at 475 nm was measured in a time-dependent manner using a Beckman UV-650 spectrophotometer. The percentage inhibition was calculated by using [(OD0 - OD1)/OD0] × 100%, where OD0 was the absorbance without inhibitor, and OD1 was the absorbance with the inhibitor. The IC50 value of the potential compound was calculated from dose-response curves of percentage inhibition. Kojic acid was used as a standard control for comparison. All experiments were performed in duplicate.
Target sequence in this assay (C7FF04 1-392 limits assumed): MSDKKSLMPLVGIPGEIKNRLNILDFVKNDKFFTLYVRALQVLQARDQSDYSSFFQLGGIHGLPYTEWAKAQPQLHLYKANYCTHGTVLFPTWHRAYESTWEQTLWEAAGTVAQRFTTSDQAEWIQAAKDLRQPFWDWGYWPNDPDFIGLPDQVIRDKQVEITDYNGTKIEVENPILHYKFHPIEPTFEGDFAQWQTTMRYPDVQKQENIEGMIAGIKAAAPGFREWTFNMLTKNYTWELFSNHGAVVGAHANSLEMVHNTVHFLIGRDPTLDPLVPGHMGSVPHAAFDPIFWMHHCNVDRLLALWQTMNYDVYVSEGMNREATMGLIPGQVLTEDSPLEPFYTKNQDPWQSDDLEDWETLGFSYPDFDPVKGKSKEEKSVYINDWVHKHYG

mushroom tyrosinase [2] = molecular target: T1, mushroom tyrosinase; assay: Inhibition mechanism and kinetic analysis (v vs [E] plots, Lineweaver-Burk plot); type: biochemical
Protocol: Experiments were performed to analyze the inhibitory mechanism by the following method. For the text, the mushroom tyrosinase at a final concentration of 16.67–100.00 U/ml and L-DOPA at a final concentration of 0.5 mM were chosen. Then, the mushroom tyrosinase activity was measured in the presence of the inhibitor.
The inhibition type of the inhibitor on mushroom tyrosinase was evaluated by the Lineweaver–Burk plot, and the inhibition constants were obtained from the second plots of the apparent 1/Vmax and Km/Vmax against the inhibitor concentration. In this assay, mushroom tyrosinase at a final concentration of 33.33 U/ml and L-DOPA at a final concentration of 0.25–2 mM were used. The equation for the Lineweaver–Burk plot can be written as follows: 1/v−Km/Vm(1+[I]/KI)+1/Vm(1+[I]/KIS) where v is the reaction velocity, Km is the Michaelis constant, Vm is the maximal velocity, [I] is the concentration of the inhibitor, [S] is the concentration of the substrate, KI is the constant for the inhibitor binding with the free enzyme, and KIS is the constant for the inhibitor binding with the enzyme-substrate complex. KI and KIS were obtained from the slope or the vertical intercept vs. the inhibitor concentration, respectively.
Target sequence in this assay (C7FF04 2-392): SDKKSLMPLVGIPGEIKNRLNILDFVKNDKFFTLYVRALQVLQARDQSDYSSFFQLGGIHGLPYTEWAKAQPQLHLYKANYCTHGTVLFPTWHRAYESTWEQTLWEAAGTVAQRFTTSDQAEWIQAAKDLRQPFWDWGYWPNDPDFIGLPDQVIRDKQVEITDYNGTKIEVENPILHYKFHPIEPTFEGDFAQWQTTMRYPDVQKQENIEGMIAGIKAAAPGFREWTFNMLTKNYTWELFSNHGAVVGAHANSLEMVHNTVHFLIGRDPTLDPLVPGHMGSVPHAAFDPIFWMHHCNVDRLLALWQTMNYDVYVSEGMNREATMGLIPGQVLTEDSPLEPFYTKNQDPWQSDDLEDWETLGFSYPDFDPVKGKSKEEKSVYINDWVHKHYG

B16 melanoma cells = assay: MTT assay, cell cytotoxicity; type: cell-based, mouse; conditions: 24 h treatment, under a concentration of 100 μM
Protocol: B16 mouse melanoma cells were cultured in Dulbecco’s modified Eagle’s medium (DMEM) containing 10% fetal bovine serum and 1% penicillin/streptomycin at 37°C in a 5% CO2 incubator. B16 cells (100 µl) were plated in a 96-well plate (5 × 10^3 cells/well) for 24 h and then treated with a 100 µl complete medium containing A12 or kojic acid for 24 h. MTT solution (0.5 mg/ml, final concentration) was added to each well, and plates were incubated at 37°C for another 3 h. The absorbance was measured at 490 nm using a multi-detection microplate reader.

[3] = tested on: tyrosinase in B16 melanoma cells; assay: Cellular tyrosinase activity; type: cell-based; conditions: Mus musculus, 48 h incubation
Protocol: B16 mouse melanoma cells were cultured in Dulbecco’s modified Eagle’s medium (DMEM) containing 10% fetal bovine serum and 1% penicillin/streptomycin at 37°C in a 5% CO2 incubator. The inhibitory activity of A12 on tyrosinase in B16 cells was evaluated. B16 cells (5 × 10^4 cells/well) were plated in 96-well plates and incubated for 24 h. A measure of 100 µl of complete medium including A12 or kojic acid was added for further incubation of 48 h. Then, cells were added to 50 µl Triton X-100 (1%) and allowed for freezing for 1 h at −80°C. After thawing at room temperature, 10 μl L-DOPA solutions (0.1%, w/v) were added and co-incubated for 1 h at 37°C. The absorbance at 405 nm was measured.

SMILES | pIC50 (mushroom tyrosinase [1]) | further results
Cn1ccc(-c2ccc(Br)cc2)c1C#N [Compound A6] | 5.09 | –
COc1ccc(-c2ccn(C)c2C#N)cc1 [Compound A8] | 4.05 | –
Cn1ccc(-c2ccc(C(F)(F)F)cc2)c1C#N [Compound A9] | 4.91 | –
Cn1ccc(-c2cccc(Cl)c2Cl)c1C#N [Compound A10] | 5.32 | –
COc1ccc(Br)cc1-c1ccn(C)c1C#N [Compound A11] | 5.68 | –
C=Cc1ccccc1-c1ccn(C)c1C#N [Compound A12] | 6.01 | inhibition type (mushroom tyrosinase [2]; Lineweaver-Burk double reciprocal plots, L-DOPA 0.25-2 mM, tyrosinase 33.33 U/ml): mixed-type; reversibility of tyrosinase inhibition (mushroom tyrosinase [2]; plots of initial velocity vs tyrosinase concentration, L-DOPA 0.5 mM): reversible; KIS, equilibrium constant for inhibitor binding with enzyme-substrate complex (mushroom tyrosinase [2]; second plot of apparent 1/Vmax vs inhibitor concentration): 1.00 µM; cell cytotoxicity on B16 melanoma cells (B16 melanoma cells): no cytotoxicity; inhibition at 100 µM [3]: 33.5%; times stronger than the reference inhibitor kojic acid (mushroom tyrosinase [1]; ratio of tyrosinase IC50 values, kojic acid vs compound): ~30 times
N#Cc1c(-c2ccc(Cl)cc2)cc2n1CCCC2 [Compound A16] | 5.30 | –
N#Cc1c(-c2ccc(Cl)cc2)cc2n1Cc1ccccc1C2 [Compound A17] | 5.25 | –
Cn1ccc(-c2cccc(Br)c2)c1C(N)=O [Compound B1, 3-(3-Bromophenyl)-1-methyl-1H-pyrrole-2-carboxamide] | < 3.70 | –
Cn1ccc(-c2ccc(Br)cc2)c1C(N)=O [Compound B2, 3-(4-Bromophenyl)-1-methyl-1H-pyrrole-2-carboxamide] | < 3.70 | melting point: 172 to 174 °C
Cn1ccc(-c2ccc(Br)cc2)c1CNC(=O)OC(C)(C)C [Compound B3, tert-Butyl ((3-(4-bromophenyl)-1-methyl-1H-pyrrol-2-yl)methyl)carbamate] | < 3.70 | melting point: 109 to 113 °C
Cn1ccc(-c2cccc(F)c2)c1CNC(=O)OC(C)(C)C [Compound B4, tert-Butyl ((3-(3-fluorophenyl)-1-methyl-1H-pyrrol-2-yl)methyl)carbamate] | < 3.70 | melting point: 103 to 104 °C
Cn1ccc(-c2cccc(Br)c2)c1CNC(=O)OC(C)(C)C [Compound B5, tert-Butyl ((3-(3-bromophenyl)-1-methyl-1H-pyrrol-2-yl)methyl)carbamate] | < 3.70 | melting point: 124 to 127 °C
Cn1ccc(-c2ccccc2)c1CNC(=O)OC(C)(C)C [Compound B6, tert-Butyl ((1-methyl-3-phenyl-1H-pyrrol-2-yl)methyl)carbamate] | < 3.70 | melting point: 87 to 90 °C
Cn1ccc(-c2ccc(C(F)(F)F)cc2)c1CNC(=O)OC(C)(C)C [Compound B7, tert-Butyl ((1-methyl-3-(4-(trifluoromethyl)phenyl)-1H-pyrrol-2-yl)methyl)carbamate] | < 3.70 | melting point: 120 to 122 °C
Cn1ccc(-c2ccccc2F)c1CNC(=O)OC(C)(C)C [Compound B8, tert-Butyl ((3-(2-fluorophenyl)-1-methyl-1H-pyrrol-2-yl)methyl)carbamate] | < 3.70 | melting point: 81 to 84 °C
O=c1cc(CO)occ1O [Kojic acid, reference compound] | – | cell cytotoxicity on B16 melanoma cells (B16 melanoma cells): no cytotoxicity; inhibition at 100 µM [3]: 39.8%

Second part, led by results:

pIC50 (mushroom tyrosinase [1]) | SMILES | further results
5.13 | Cn1ccc(-c2ccccc2)c1C#N [Compound A1] | –
5.06 | Cn1ccc(-c2ccccc2F)c1C#N [Compound A2] | –
4.67 | Cn1ccc(-c2cccc(F)c2)c1C#N [Compound A3] | –
5.07 | Cn1ccc(-c2ccccc2Br)c1C#N [Compound A4] | –
4.78 | Cn1ccc(-c2cccc(Br)c2)c1C#N [Compound A5] | –
4.63 | COc1ccccc1-c1ccn(C)c1C#N [Compound A7] | –
5.35 | CCn1c(C)cc(-c2ccccc2)c1C#N [Compound A13] | –
4.09 | N#Cc1c(-c2ccc(Cl)cc2)ccn1Cc1ccccc1 [Compound A14] | –
4.06 | Cn1c(-c2ccccc2)cc(-c2ccc(Cl)cc2)c1C#N [Compound A15] | –
